The values that follow come from PMC11726654, “Discovery of MDI-114215: A Potent and Selective LIMK Inhibitor To Treat Fragile X Syndrome” (Journal of Medicinal Chemistry, 2024).

Each structure is given as a SMILES string. Converted amounts (≈) assume the structure as drawn.

Series [1] concerns p-cofilin levels in WT and Fmr1 KO mouse brain slices. Nature of the series: Western blot of p-cofilin in treated hippocampal brain slices. The settings on record: 3 μM, 30 min, WT and Fmr1 KO (P7–9) brain slices.
Description: Hippocampal slices were obtained from neonatal (postnatal days 7–9) wild type (WT) and Fmr1 KO mice originally supplied by Jackson Laboratories. […] Mice for experimentation were killed by cervical dislocation. […] The temporal aspects of the brain were trimmed, bisected, then glued to a metal plate, such that the midline was uppermost and horizontal. […] Each individual sample was suspended in 300 μL of buffer and lysed by pipetting on ice. Samples were centrifuged to pellet at 17,000g for 30 min at 4 °C. Protein was quantified using Biorad DC protein assay (Biorad, 5000112) and read on a PheraStar plate reader (BMG Labtech) and standardized to 2 mg/mL each sample.
Sample loading buffer was added to each sample at 1:4 concentrations and boiled for 5 min prior to use. […] Membranes were then blocked in 5% BSA TBST for 1 h at rt and then placed into LIMK1, p-cofilin, cofilin and actin primary antibody solutions at 4 °C overnight. The following day, membranes were washed 3× in TBST solution before being placed in appropriate secondary antibody solutions for 1 h at room temperature. Following a final 3 washes in TBST, the membranes were developed using ClarityMax ECL substrate (Biorad, UK) at a 1:1 ratio. The ECL solution was allowed to develop on the membrane for 5 min prior to visualizing using the CHEMIDOC imaging system (Biorad, UK). […]
The nature of series [2]: In vivo PK, p.o./i.p. dosing. The settings on record: male, Sprague-Dawley, rat, plasma.
Series [3] can be described thus: Unbound fraction in brain and plasma. The series is classed as in vitro ADME. The settings on record: for fubrain: unbound fraction in brain; for fuplasma: unbound fraction in plasma.
The next series is described as follows: Thermodynamic solubility. The note with it: PBS, pH 7.
A short description of another series: In vivo PK, i.v. dosing. The note with it: male, Sprague-Dawley, rat, plasma; for CLint scaled: intravenous; for AUC(0-inf) at 1 h / Vd at 1 h / half-life at 1 h: iv.
Series [4] is described as follows: Microsomal stability. The note with it: rat, microsomes, pH 7.4.
A short description of series [5]: Microsomal stability. The note with it: human, microsomes, pH 7.4.
A short description of the next series: CNS penetration study. The settings on record: male, Sprague-Dawley, rat, brain/plasma, iv, 1 mg/kg.
Series [6] has as its system p-cofilin Ser3 levels in SH-SY5Y cells. Nature of the series: AlphaLISA SureFire p-cofilin assay. The series is classed as cell-based. The settings on record: Homo sapiens, 2 h, read-out: alphaLISA pIC50 p-cofilin (converted).
Description: The AlphaLISA assay for detection of p-cofilin Ser3 levels was followed as previously described.[14] […] Cells were placed in the incubator for 2 h, after which the media was removed and the cells were lysed using 50 μL AlphaLISA 1× lysis buffer (PerkinElmer, USA) containing protease inhibitor cocktail (Sigma/Merck, Dorset, UK) and Pierce phosphatase inhibitor cocktail (Thermo Fisher Scientific, UK). The cell lysate was then transferred to a clean, flat-bottom, white 384-well plate, to which 5 μL/well of acceptor bead solution consisting of Reaction buffer 1, Reaction buffer 2, Activation Buffer and Acceptor Beads from pCofilin SureFire Ultra assay kit (PerkinElmer, USA, cat# ALSU-PCOF-A500) was added under dim light. After incubation at RT for 1 h, 5 μL/well of donor solution consisting of Dilution Buffer and Donor beads was added. The plate was read on a Pherastar reader (BMD Labtech Ltd., Aylesbury, UK) using an AlphaLISA cartridge and AlphaLISA plate settings.
A short description of series [7]: Caco-2 permeability and efflux. The note with it: human, Caco-2. (In general: Caco-2 monolayers are a common model of the intestinal barrier.)

Description for In vivo PK, i.v. dosing: A satellite group of three animals were also administered i.v. test compound (dosed at 1 mg/kg in 10% DMSO/20% Cremophor/70% saline) and after 1 h, the animals culled and brain samples immediately prepared by homogenization in H2O and protein precipitation in MeCN. Bioanalysis on plasma and brain samples were performed using a UHPLC-tandem mass spectrometry using electrospray ionization.

Regarding `CCn1c(=O)c(-c2ccc(Cl)cc2Cl)cc2cnc(Nc3ccc(N4CCNCC4)c(F)c3)nc21` [FRAX486], in series [1], the “p-cofilin levels vs vehicle” value is recorded as “consistent reduction”.

For orientation: Cmax means the maximum level reached in the sampled fluid or tissue. The Tmax is the time at which the peak concentration occurs. Broadly, the bioavailability is dose-corrected exposure relative to a reference, in per cent. Read a low bioavailability as little systemic uptake. The term solubility denotes the dissolved amount per volume that the medium holds. Broadly, the CLint scaled is the capacity of the preparation to metabolise the compound, expressed as a volume cleared per time. As a reminder, the AUC(0-inf) is total exposure, with the tail of the curve extrapolated. Higher therefore signals high exposure. The Vd is the apparent volume that relates the amount in the body to the concentration in plasma or blood. The half-life is how long it takes for the measured level to halve. Higher therefore signals slow decline. By microsomal CLint is commonly meant the capacity of the preparation to metabolise the compound, expressed as a volume cleared per time. A low value points to greater metabolic stability. Broadly, the Kp is the ratio of the level in a tissue or fluid to that in plasma or blood. Consider `CCCCN(Cc1ccc2[nH]ccc2c1)C(=O)c1ccc(S(=O)(=O)Nc2ccccc2)cc1` [Compound 51, N-Butyl-N-(1H-indol-5-ylmethyl)-4-(phenylsulfamoyl)benzamide], for which, in [2] (po, 3 mg/kg), the Cmax at 1 h is 4.6 ng/mL, the Tmax at 1 h was 60 min and the bioavailability at 1 h turned out to be 2%. In [3], this compound displayed a fubrain of under 0.1% and a fuplasma of 1.3%. Further, the solubility at 24 h in “Thermodynamic solubility” was found to be 3 µM (≈ 1.38 µg/mL). Also, the CLint scaled in “In vivo PK, i.v. dosing” worked out at 67.8 mL/min/kg. For the same compound, in “In vivo PK, i.v. dosing” (1 mg/kg), the total exposure AUC(0-inf) at 1 h came out at 247 ng·h/mL, the Vd at 1 h is 2.3 L/kg and the half-life at 1 h is 30 min. The microsomal CLint at 2 μM in “Microsomal stability [4]” amounted to 357 µL/min/mg. Besides, the microsomal CLint at 2 μM in the series “Microsomal stability [5]” came out at 121 µL/min/mg. In “CNS penetration study”, this compound registered a Kp at 1 h of 0.4 and a Kp uu at 1 h of under 0.03.

For orientation: Papp means the rate of passage across a membrane or cell layer, normalised by area and donor concentration. Lower therefore signals slow passage. For `O=C(c1ccc(S(=O)(=O)Nc2ccccc2)cc1)N(Cc1ccc(OCCO)cc1)CC1CC1` [Compound 86, N-(Cyclopropylmethyl)-N-[[4-(2-hydroxyethoxy)phenyl]methyl]-4-(phenylsulfamoyl)benzamide], in series [6], the IC50 was 56.2 nM. In series [3], the fubrain worked out at 0.9% and the fuplasma was determined as 1.4%. Besides, in “Thermodynamic solubility”, the solubility at 24 h is 6 µM (≈ 2.88 µg/mL). In “Microsomal stability [4]”, this compound showed a microsomal CLint at 0.5 h, 2 µM of 420 µL/min/mg. Further, the microsomal CLint at 0.5 h, 2 µM in the series “Microsomal stability [5]” stood at 119 µL/min/mg. This compound came in with a Papp in series [7] of 15 ×10⁻⁶ cm/s.

Consider `COCCNc1ccc(CN(CC2CC2)C(=O)c2ccc(S(=O)(=O)Nc3ccccc3)cc2)nc1` [Compound 75, N-(Cyclopropylmethyl)-N-[[5-(2-methoxyethylamino)-2-pyridyl]methyl]-4-(phenylsulfamoyl)benzamide], for which, in series [2] (ip, 10 mg/kg), the Cmax at 1 h is 134 ng/mL, the Tmax at 1 h amounted to 18 min and the bioavailability worked out at 55%. Moreover, in [2] (po, 3 mg/kg), the Cmax at 1 h is 16.8 ng/mL, the Tmax at 1 h was 24 min and the bioavailability at 1 h worked out at 13%. Moreover, the IC50 in [6] is 77.6 nM. In series [3], this compound yielded a fubrain of 2.2% and a fuplasma of 4.7%. Further, the solubility at 24 h in the series “Thermodynamic solubility” was found to be 28 µM (≈ 13.8 µg/mL). This compound came in with a CLint scaled in the series “In vivo PK, i.v. dosing” of 374 mL/min/kg. In addition, in the series “In vivo PK, i.v. dosing” (0.5 mg/kg), the AUC(0-inf) at 1 h was 22.6 ng·h/mL, the Vd at 1 h was determined as 10.9 L/kg and the half-life at 1 h is 24 min. The compound further displayed a microsomal CLint at 0.5 h, 2 µM in “Microsomal stability [4]” of 327 µL/min/mg. This compound also registered a microsomal CLint at 0.5 h, 2 µM in “Microsomal stability [5]” of 175 µL/min/mg. This compound gave a Papp in series [7] of 8.3 ×10⁻⁶ cm/s.
